In the NIST ThermoML archive (doi:10.1021/acs.jced.5b00941):

Experiments:
[1] = mn = molality of the nth substance listed, in mol/kg; conditions: 100 kPa, Liquid; for viscosity: Falling or rolling sphere viscometry; for mass density: Vibrating tube method
[2] = 100 kPa, Liquid, Falling or rolling sphere viscometry

O=C(O[C@@H]1Cc2c(O)cc(O)cc2O[C@@H]1c1cc(O)c(O)c(O)c1)c1cc(O)c(O)c(O)c1 + O
[1]
Conditions	mass density, 288.15 K [kg/m3]	mass density, 293.15 K [kg/m3]	mass density, 298.15 K [kg/m3]	mass density, 303.15 K [kg/m3]	mass density, 308.15 K [kg/m3]	viscosity, 288.15 K [mPa·s]	viscosity, 293.15 K [mPa·s]	viscosity, 298.15 K [mPa·s]	viscosity, 303.15 K [mPa·s]	viscosity, 308.15 K [mPa·s]
m1 = 0.0099	1000.71	999.804	998.637	997.228	995.598	1.148	1.014	0.906	0.815	0.739
m1 = 0.02	1002.36	1001.44	1000.26	998.831	997.195	1.158	1.021	0.911	0.82	0.744
m1 = 0.0298	1003.97	1003.04	1001.83	1000.39	998.752	1.171	1.034	0.92	0.827	0.75
m1 = 0.0399	1005.63	1004.68	1003.47	1002.01	1000.36	1.187	1.049	0.934	0.838	0.759
m1 = 0.0499	1007.26	1006.29	1005.05	1003.6	1001.92	1.203	1.062	0.945	0.849	0.769
m1 = 0.0601	1008.94	1007.93	1006.69	1005.22	1003.53	1.222	1.079	0.959	0.86	0.778

[Cl-].[Li+] [lithium chloride] + O
[1]
Conditions	mass density, 288.15 K [kg/m3]	mass density, 293.15 K [kg/m3]	mass density, 298.15 K [kg/m3]	mass density, 303.15 K [kg/m3]	mass density, 308.15 K [kg/m3]	viscosity, 288.15 K [mPa·s]	viscosity, 293.15 K [mPa·s]	viscosity, 298.15 K [mPa·s]	viscosity, 303.15 K [mPa·s]	viscosity, 308.15 K [mPa·s]
m1 = 0.1	1001.51	1000.58	999.41	998.003	996.382	1.146	1.011	0.898	0.809	0.735
m1 = 0.2	1004	1003.06	1001.87	1000.45	998.848	1.154	1.019	0.909	0.818	0.743
m1 = 0.3	1006.34	1005.37	1004.17	1002.75	1001.13	1.169	1.033	0.921	0.83	0.753
m1 = 0.4	1008.37	1007.4	1006.19	1004.76	1003.15	1.183	1.045	0.932	0.84	0.762
m1 = 0.5	1011.06	1010.07	1008.81	1007.35	1005.79	1.201	1.061	0.948	0.853	0.774

[Cl-].[K+] [potassium chloride] + O
[1]
Conditions	mass density, 288.15 K [kg/m3]	mass density, 293.15 K [kg/m3]	mass density, 298.15 K [kg/m3]	mass density, 303.15 K [kg/m3]	mass density, 308.15 K [kg/m3]	viscosity, 288.15 K [mPa·s]	viscosity, 293.15 K [mPa·s]	viscosity, 298.15 K [mPa·s]	viscosity, 303.15 K [mPa·s]	viscosity, 308.15 K [mPa·s]
m1 = 0.1	1003.85	1002.92	1001.71	1000.28	998.631	1.145	1.01	0.896	0.801	0.722
m1 = 0.2	1008.58	1007.58	1006.33	1004.85	1003.19	1.145	1.01	0.896	0.801	0.723
m1 = 0.3	1013.16	1012.13	1010.84	1009.34	1007.64	1.145	1.011	0.897	0.801	0.726
m1 = 0.4	1017.86	1016.77	1015.43	1013.89	1012.18	1.147	1.013	0.897	0.801	0.73
m1 = 0.5	1022.32	1021.2	1019.84	1018.27	1016.52	1.152	1.027	0.899	0.802	0.73

[Cl-].[Na+] [sodium chloride] + O
[1]
Conditions	mass density, 288.15 K [kg/m3]	mass density, 293.15 K [kg/m3]	mass density, 298.15 K [kg/m3]	mass density, 303.15 K [kg/m3]	mass density, 308.15 K [kg/m3]	viscosity, 288.15 K [mPa·s]	viscosity, 293.15 K [mPa·s]	viscosity, 298.15 K [mPa·s]	viscosity, 303.15 K [mPa·s]	viscosity, 308.15 K [mPa·s]
m1 = 0.1	1003.32	1002.36	1001.15	999.711	998.058	1.146	1.011	0.892	0.804	0.73
m1 = 0.2	1007.43	1006.42	1005.14	1003.65	1001.98	1.149	1.016	0.901	0.812	0.738
m1 = 0.3	1011.33	1010.27	1008.96	1007.44	1005.73	1.151	1.019	0.91	0.82	0.745
m1 = 0.4	1015.65	1014.53	1013.16	1011.6	1009.85	1.158	1.026	0.917	0.827	0.751
m1 = 0.5	1019.41	1018.24	–	1015.24	1013.48	1.165	1.033	0.925	0.834	0.76

O [water]
[2]
Conditions	viscosity [mPa·s]
288.15 K	1.145
293.15 K	1.01
298.15 K	0.896
303.15 K	0.801
308.15 K	0.721
